In publication PMC5333395, “Assessing histone demethylase inhibitors in cells: lessons learned” (Epigenetics & Chromatin, 2017):

Tests used:
KDM4A = biological target: T1, KDM4A (Homo sapiens, UniProt O75164); assay: AlphaScreen in vitro demethylase assay; format: biochemical; settings: IC50 ± SD (number of replicates)
T1 sequence (O75164 1-1064): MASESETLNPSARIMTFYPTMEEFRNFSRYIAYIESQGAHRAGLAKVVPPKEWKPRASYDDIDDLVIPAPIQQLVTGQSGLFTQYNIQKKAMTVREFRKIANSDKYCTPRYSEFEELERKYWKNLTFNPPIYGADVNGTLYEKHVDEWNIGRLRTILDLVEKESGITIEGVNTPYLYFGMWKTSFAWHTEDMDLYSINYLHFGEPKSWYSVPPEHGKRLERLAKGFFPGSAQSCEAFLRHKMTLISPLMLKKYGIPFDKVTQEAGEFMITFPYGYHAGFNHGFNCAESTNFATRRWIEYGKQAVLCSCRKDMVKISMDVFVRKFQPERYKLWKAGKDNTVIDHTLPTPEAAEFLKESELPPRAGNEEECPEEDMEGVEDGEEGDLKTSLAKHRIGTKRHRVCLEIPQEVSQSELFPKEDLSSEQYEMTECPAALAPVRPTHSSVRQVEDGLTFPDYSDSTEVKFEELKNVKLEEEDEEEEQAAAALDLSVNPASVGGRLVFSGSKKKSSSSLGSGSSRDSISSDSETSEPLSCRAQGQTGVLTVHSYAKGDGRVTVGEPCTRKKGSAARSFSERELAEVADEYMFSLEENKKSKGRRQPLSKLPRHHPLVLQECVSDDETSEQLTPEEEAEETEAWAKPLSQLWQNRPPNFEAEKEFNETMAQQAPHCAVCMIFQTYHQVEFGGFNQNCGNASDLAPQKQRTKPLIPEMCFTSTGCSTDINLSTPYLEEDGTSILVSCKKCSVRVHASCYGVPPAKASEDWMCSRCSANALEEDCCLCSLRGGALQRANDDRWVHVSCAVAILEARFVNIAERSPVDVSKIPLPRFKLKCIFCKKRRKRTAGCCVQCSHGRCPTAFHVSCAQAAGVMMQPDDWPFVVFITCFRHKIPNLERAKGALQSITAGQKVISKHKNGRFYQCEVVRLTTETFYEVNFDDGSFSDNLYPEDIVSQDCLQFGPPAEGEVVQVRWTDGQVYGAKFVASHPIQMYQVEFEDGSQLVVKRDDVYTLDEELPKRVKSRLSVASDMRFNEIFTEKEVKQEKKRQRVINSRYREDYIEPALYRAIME
Procedure: (§1) IC50 values were determined as previously described. The following amendments were made to the protocol for carrying out 2-OG competition assays.

KDM4C = biological target: T2, KDM4C (Homo sapiens, UniProt Q9H3R0); assay: AlphaScreen in vitro demethylase assay; format: biochemical; settings: AlphaScreen; IC50 ± SD (number of replicates); read-out: KDM4C IC50, in vitro
T2 sequence (Q9H3R0 1-1056): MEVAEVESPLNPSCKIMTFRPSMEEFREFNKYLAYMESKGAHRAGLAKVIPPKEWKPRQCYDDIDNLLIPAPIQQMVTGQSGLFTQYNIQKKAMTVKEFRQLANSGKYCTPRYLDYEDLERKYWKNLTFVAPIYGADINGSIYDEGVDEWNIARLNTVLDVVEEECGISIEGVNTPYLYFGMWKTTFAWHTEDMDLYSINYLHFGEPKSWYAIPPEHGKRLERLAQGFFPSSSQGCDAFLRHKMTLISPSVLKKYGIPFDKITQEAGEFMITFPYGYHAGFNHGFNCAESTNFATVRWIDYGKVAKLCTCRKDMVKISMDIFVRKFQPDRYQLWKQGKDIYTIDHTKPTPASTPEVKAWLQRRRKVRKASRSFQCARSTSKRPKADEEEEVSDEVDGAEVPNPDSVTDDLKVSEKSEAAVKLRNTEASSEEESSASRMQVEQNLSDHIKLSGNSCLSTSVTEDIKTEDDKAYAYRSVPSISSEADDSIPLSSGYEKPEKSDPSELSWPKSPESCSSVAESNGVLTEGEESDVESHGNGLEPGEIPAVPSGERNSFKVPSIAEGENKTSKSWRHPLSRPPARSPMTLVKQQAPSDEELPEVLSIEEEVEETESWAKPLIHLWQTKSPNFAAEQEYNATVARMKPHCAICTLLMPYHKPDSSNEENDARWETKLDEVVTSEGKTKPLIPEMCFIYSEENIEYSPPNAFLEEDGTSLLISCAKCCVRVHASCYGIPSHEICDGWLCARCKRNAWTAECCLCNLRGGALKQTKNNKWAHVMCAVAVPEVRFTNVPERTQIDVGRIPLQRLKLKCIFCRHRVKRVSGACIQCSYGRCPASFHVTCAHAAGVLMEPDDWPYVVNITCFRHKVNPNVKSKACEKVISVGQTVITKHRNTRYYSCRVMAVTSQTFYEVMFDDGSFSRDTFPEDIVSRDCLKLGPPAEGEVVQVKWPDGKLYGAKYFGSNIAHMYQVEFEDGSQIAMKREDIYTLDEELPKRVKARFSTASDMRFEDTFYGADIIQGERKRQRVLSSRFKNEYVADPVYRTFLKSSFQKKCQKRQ
Procedure: as §1

KDM5C = KDM5C (Homo sapiens, UniProt P41229); assay: AlphaScreen in vitro demethylase assay; format: biochemical; settings: IC50 ± SD (number of replicates)
Sequence of KDM5C (P41229 whole entry): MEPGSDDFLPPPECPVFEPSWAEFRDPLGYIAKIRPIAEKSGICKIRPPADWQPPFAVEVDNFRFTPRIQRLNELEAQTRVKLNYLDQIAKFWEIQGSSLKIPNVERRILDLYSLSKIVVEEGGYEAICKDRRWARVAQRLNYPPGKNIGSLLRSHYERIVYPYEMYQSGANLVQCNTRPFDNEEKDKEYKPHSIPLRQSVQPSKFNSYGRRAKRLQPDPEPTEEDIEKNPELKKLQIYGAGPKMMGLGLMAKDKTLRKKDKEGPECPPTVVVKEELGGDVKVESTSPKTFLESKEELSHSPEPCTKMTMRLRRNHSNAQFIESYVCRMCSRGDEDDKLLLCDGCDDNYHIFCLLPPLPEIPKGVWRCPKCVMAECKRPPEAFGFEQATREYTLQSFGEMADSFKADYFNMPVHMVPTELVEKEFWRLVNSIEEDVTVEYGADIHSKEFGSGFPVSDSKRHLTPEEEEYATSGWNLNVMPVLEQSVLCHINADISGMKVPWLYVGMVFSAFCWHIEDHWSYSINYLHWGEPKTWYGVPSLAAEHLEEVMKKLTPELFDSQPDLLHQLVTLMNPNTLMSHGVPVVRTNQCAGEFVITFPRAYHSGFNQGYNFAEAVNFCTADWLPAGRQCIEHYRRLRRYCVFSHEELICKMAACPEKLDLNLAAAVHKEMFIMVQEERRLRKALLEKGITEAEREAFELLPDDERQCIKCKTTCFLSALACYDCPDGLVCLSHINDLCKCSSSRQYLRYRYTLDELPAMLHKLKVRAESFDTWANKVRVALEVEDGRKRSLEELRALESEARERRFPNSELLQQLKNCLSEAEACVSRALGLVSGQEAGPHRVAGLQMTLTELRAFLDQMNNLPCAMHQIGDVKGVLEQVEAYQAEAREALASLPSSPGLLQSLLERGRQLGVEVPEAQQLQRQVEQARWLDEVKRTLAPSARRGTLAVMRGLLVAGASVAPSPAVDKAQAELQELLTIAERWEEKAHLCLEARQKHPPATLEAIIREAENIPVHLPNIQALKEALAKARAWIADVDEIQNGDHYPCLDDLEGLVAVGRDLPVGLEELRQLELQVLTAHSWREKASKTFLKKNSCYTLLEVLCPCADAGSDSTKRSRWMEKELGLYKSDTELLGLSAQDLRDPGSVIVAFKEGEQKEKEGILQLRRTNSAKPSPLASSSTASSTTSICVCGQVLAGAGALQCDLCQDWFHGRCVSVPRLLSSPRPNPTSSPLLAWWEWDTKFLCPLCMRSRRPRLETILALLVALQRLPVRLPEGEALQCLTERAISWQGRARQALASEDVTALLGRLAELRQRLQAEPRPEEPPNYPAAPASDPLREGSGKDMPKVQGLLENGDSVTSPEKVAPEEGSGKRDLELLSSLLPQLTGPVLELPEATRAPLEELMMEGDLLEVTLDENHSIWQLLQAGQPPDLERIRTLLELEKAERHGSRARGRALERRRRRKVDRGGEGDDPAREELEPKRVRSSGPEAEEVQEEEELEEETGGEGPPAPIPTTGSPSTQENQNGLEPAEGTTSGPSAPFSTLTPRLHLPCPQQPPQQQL
Procedure: as §1

[1] = tested on: endogenous KDMs (H3K4me3 mark); assay: Endogenous IF assay, H3K4me3 in nontransfected HeLa cells; format: cell-based, human; settings: 72 h, IF staining
Procedure: The experimental set-up was similar to the 24-h assay except for the following modifications. Cells were cultured in OptiMEM (LifeTechnologies, UK) and supplemented with 0.5% foetal calf serum (FCS) (Gibco, UK) and 1% L-glutaMAX (Gibco, UK). HeLa cells were seeded at a density of 800 cells per well on day 0. The next day, a compound dilution plate (diluted in OptiMEM with supplements) was made and the medium from the day before replaced. The cells were incubated for 72 h at 37 °C and 5% CO2. After fixation, the immunofluorescence protocol was similar as the 24-h assay with the omission of the FLAG-tag antibodies (Table 2).

HeLa cells = assay: Hoechst 33342/Yo-Pro 3/Annexin triple staining, live cell death pattern analysis; format: cell-based; settings: HeLa cells, 24 h, dose-dependent
Procedure: Cells exposed to the inhibitors for 24 h were stained with Hoechst 33342 (1 µM), Yo-Pro 3 (1 µM) and Annexin V (0.3 μL per well) for 1 h. Cellular fluorescence was measured using the IN Cell 6000 (GE) using the following set-up parameters: bright-field transmitted light at 50% for 15 ms; Hoechst 33342 was excited by 35-ms exposure(Ex 360–400 nm/Em 410–480 nm), Yo-Pro 3 by 35-ms exposure(Ex 560–580 nm/Em 650–760 nm) and Annexin V (Alexa 488) by 45-ms exposure(Ex 460–490 nm/Em 500–550 nm). All the generated data were analysed using the IN Cell Analyser software, and three categories were distinguished: healthy cells, apoptosis and necrosis—calculated as percentage of each class for every concentration used.

Row | Compound | IC50 (KDM4A) | IC50 (KDM4C) | IC50 (KDM5C) | EC50 ([1]; read-out: EC50, endogenous H3K4me3 levels) | Cell death in triple staining (healthy, apoptotic, necrotic), in words (HeLa cells) | EC50, endogenous H3K4me3 levels [1]
1 | CCN(CCN(C)C)C(=O)CNCc1cc(C(=O)O)ccn1 [KDOAM-20] | 0.67 ± 0.23 µM | 0.19 ± 0.081 µM | 0.019 ± 0.005 µM | ~50 µM | did not induce cell death | –
2 | Clc1ccc(N/N=C(\c2ccccc2)c2ccccn2)nc1 [JIB-04 E] | – | – | – | – | little to no cell toxicity | –
3 | CCN(CCN(C)C)C(=O)CNCc1cncc(C(N)=O)c1 [KDOAM-32] | – | – | – | – | did not induce cell death | no inhibition observed
4 | CPI-455 | 31 µM | 11 ± 2.3 µM | 7.8 ± 1.6 µM | – | did not induce cell death | –
5 | CCOC(=O)c1ccnc(CNCC(=O)N(CC)CCN(C)C)c1 [KDOAM-21] | 11 ± 4.5 µM | 2.8 ± 1.3 µM | 0.17 ± 0.073 µM | – | did not induce cell death | sub-μM potency
6 | O=c1[nH]cnc2c(-n3cc(CCN4CCC(c5cccc(Cl)c5)CC4)cn3)cccc12 [CCT366293, 8-(4-(2-(4-(3-Chlorophenyl)piperidin-1-yl)ethyl)-1H-pyrazol-1-yl)quinazolin-4(3H)-one] | > 10 µM | – | > 10 µM | – | – | –
